From patent US4783443A, “Amino acyl cephalosporin derivatives” (The University of Chicago, priority 1986, dated 1988)
Converted amounts (≈) assume the structure as drawn.

Key:
[1] = target: E. coli TEM beta-lactamase (Escherichia coli, UniProt P62593); assay: Kinetics of enzymatic turnover by E. coli TEM beta-lactamase; type: biochemical
Procedure: Escherichi coli TEM beta-lactamase was purchased from Applied Microbiology and Research, Porton Down, U.K. L-Alanyl-L-alanine was purchase from Sigma; N-BOC-LAla-LAla and N-BOC-beta-Cl-LAla-beta-Cl-LAla were prepared as described previously. Cheung et al supra. All other reagents were of the best grade commercially available.
Kinetic Constants for the Reactions of E. coli TEM beta-Lactamase with Cephalothin and the Cephalosporin Peptide Esters 7 and 17.

[2] = tested on: Corynebacterium JKM-4754; assay: Minimum inhibitory concentration (MIC); type: cell-based; settings: Corynebacterium JKM-4754, resistant to cephalothin
From the text: (§1) The antibacterial effects of compounds of the invention have been assessed by determination of the minimum inhibitory concentration (M.I.C.) value against a variety of Gram-negative and -positive bacteria. The microbial susceptibility data for four compounds, together with those for the antibacterial dipeptide beta-Cl-LAla-beta-Cl-LAla, are given in Table I.
(§2) in uM to facilitate a meaningful comparison of the approximate MICs among
(§3) the tested compounds; an appreciation of the MIC values in ug/mL can be
(§4) obtained by multiplying each value (μM) by 0.55
(§5) ^(j) Resistant to cephalothin (MIC >200 uM);

[3] = tested on: Escherichia coli Ceph^R; assay: Minimum inhibitory concentration (MIC); type: cell-based
From the text: as §1, §2, §3, §4, §5

[4] = tested on: Corynebacterium JKR-2285; assay: Minimum inhibitory concentration (MIC); type: cell-based; settings: Corynebacterium JKR-2285, resistant to cephalothin
From the text: as §1, §2, §3, §4, §5

[5] = tested on: Hemophilus influenzae 236; assay: Minimum inhibitory concentration (MIC); type: cell-based
From the text: as §1, §2, §3, §4

[6] = tested on: Enterobacter areogenes; assay: Minimum inhibitory concentration (MIC); type: cell-based; settings: Gram-negative
From the text: as §1, §2, §3, §4

[7] = tested on: Morganella morganii; assay: Minimum inhibitory concentration (MIC); type: cell-based; settings: Gram-negative
From the text: as §1, §2, §3, §4

[8] = tested on: Escherichia coli CR; assay: Minimum inhibitory concentration (MIC); type: cell-based
From the text: as §1, §2, §3, §4

[9] = tested on: Escherichia coli DB4548; assay: Minimum inhibitory concentration (MIC); type: cell-based
From the text: as §1, §2, §3, §4

[10] = tested on: Staphylococcus aureus PSL-13 Pen^R; assay: Minimum inhibitory concentration (MIC); type: cell-based; settings: possesses a betalactamase
From the text: as §1, §2, §3, §4

[11] = tested on: Streptococcus agalactiae; assay: Minimum inhibitory concentration (MIC); type: cell-based; settings: Gram positive
From the text: as §1, §2, §3, §4

[12] = tested on: Salmonella typhimurium LT 2; assay: Minimum inhibitory concentration (MIC); type: cell-based; settings: Gram-negative
From the text: as §1, §2, §3, §4

[13] = tested on: Shigella flexneri; assay: Minimum inhibitory concentration (MIC); type: cell-based; settings: Gram-negative
From the text: as §1, §2, §3, §4

[14] = tested on: Hemophilus influenzae 487; assay: Minimum inhibitory concentration (MIC); type: cell-based; settings: possesses a betalactamase
From the text: as §1, §2, §3, §4

[15] = tested on: Staphylococcus aureus PSL-14 Pen^R; assay: Minimum inhibitory concentration (MIC); type: cell-based; settings: possesses a betalactamase
From the text: as §1, §2, §3, §4

[16] = tested on: Staphylococcus aureus H-2690-8^R; assay: Minimum inhibitory concentration (MIC); type: cell-based; settings: possesses a betalactamase
From the text: as §1, §2, §3, §4

[17] = tested on: Psuedomonas aeruginosa; assay: Minimum inhibitory concentration (MIC); type: cell-based; settings: Gram-negative
From the text: as §1, §2, §3, §4

[18] = tested on: Serratia marcescens; assay: Minimum inhibitory concentration (MIC); type: cell-based; settings: Gram-negative
From the text: as §1, §2, §3, §4

[19] = tested on: Streptococcus faecalis; assay: Minimum inhibitory concentration (MIC); type: cell-based
From the text: as §1, §2, §3, §4

[20] = tested on: Staphylococcus aureus PSL-15 Pen^R; assay: Minimum inhibitory concentration (MIC); type: cell-based; settings: possesses a betalactamase
From the text: as §1, §2, §3, §4

[21] = tested on: Escherichia coli JSR-O; assay: Minimum inhibitory concentration (MIC); type: cell-based
From the text: as §1, §2, §3, §4

[22] = tested on: Staphylococcus aureus T-4624-8 Pen^R; assay: Minimum inhibitory concentration (MIC); type: cell-based; settings: possesses a betalactamase
From the text: as §1, §2, §3, §4

[23] = tested on: Salmonella typhimurium; assay: Minimum inhibitory concentration (MIC); type: cell-based; settings: Gram-negative
From the text: as §1, §2, §3, §4

[24] = tested on: Enterobacter cloacae; assay: Minimum inhibitory concentration (MIC); type: cell-based
From the text: as §1, §2, §3, §4

[25] = tested on: Staphylococcus aureus PSL-16 Pen^R; assay: Minimum inhibitory concentration (MIC); type: cell-based; settings: possesses a betalactamase
From the text: as §1, §2, §3, §4

[26] = tested on: Hemophilus influenzae 238; assay: Minimum inhibitory concentration (MIC); type: cell-based
From the text: as §1, §2, §3, §4

[27] = tested on: Klebsiella pneumoniae; assay: Minimum inhibitory concentration (MIC); type: cell-based; settings: Gram-negative
From the text: as §1, §2, §3, §4

[28] = tested on: Gram-negative and -positive bacteria; assay: Antibacterial activity, general trends of the MIC panel of Table I; type: cell-based; settings: for insensitivity / resistance: P. aeruginosa, S. marcescens and K. pneumoniae
From the text: as §1

[29] = tested on: Escherichia coli JSR-O pBR322; assay: Minimum inhibitory concentration (MIC); type: cell-based; settings: read-out: Minimum Inhibitory Concentration
From the text: as §1, §2, §3, §4
^(i) Contains the plasmid gene encoding the TEM betalactamase.

[30] = tested on: Staphylococcus epidermidis 1239(P^R M^R); assay: Minimum inhibitory concentration (MIC); type: cell-based
From the text: as §1, §2, §3, §4
(§6) ^(k) P and M refer to penicillin and methicillin, respectively.

[31] = tested on: Staphylococcus epidermidis (P^R M^R); assay: Minimum inhibitory concentration (MIC); type: cell-based; settings: no strain number
From the text: as §1, §2, §3, §4, §6

[32] = tested on: Staphylococcus epidermidis MO1554(P^S M^S); assay: Minimum inhibitory concentration (MIC); type: cell-based; settings: Staphylococcus epidermidis MO1554 (penicillin- and methicillin-sensitive, P^S M^S)
From the text: as §1, §2, §3, §4, §6

[33] = tested on: Escherichia coli JSR-O Cl-Pep^R; assay: Minimum inhibitory concentration (MIC); type: cell-based
From the text: as §1, §2, §3, §4
^(g) This ia an E. coli JSRO strain selected for resistance to the
A comparison of the data for E. coli strains JSR-O and JSR-O Cl-Pep^R is of special interest. E. coli Cl-Pep^R is an E. coli JSR-O mutant which was selected for resistance to the dipeptide (f). […] Note that the MIC values for (d) and (e) against E. coli Cl-Pep^R (100 and 50 μM, respectively) are quite similar.

[34] = tested on: Gram-negative and -positive bacteria; settings: Cheung et al., 1983; cited from earlier work
[35] = Escherichia coli, read-out: Minimum Inhibitory Concentration
[36] = S. aureus strains, Corynebacterium JK strains, S. faecalis, H. influenzae 487, E. coli JSR-O and E. cloacae

Sequence of E. coli TEM beta-lactamase (P62593 24-286 limits assumed): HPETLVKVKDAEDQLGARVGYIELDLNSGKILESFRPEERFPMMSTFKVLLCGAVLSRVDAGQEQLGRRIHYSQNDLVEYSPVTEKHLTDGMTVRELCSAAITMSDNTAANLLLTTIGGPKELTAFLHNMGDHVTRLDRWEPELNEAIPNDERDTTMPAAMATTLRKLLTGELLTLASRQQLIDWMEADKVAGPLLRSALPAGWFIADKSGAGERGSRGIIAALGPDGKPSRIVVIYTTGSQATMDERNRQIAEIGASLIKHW

Compound: N[C@@H](CCl)C(=O)N[C@@H](CCl)C(=O)OCC1=C(C(=O)O)N2C(=O)[C@@H](NC(=O)Cc3cccs3)[C@H]2SC1 [(e), 7-beta-(2-thienylacetamido)-3-(beta-chloro-L-alanyl-beta-chloro-L-alanyloxymethyl)-3-cephem-4-carboxylate]
- Vmax compared with cephalothin [1]: substantially greater than that obtained for cephalothin
- substrate for the lactamase [1]: found to be substrates for the E. coli TEM beta-lactamase
- binding to the lactamase (KM approximating KS) ([1]; effect of the C10-dipeptidyl substituent): do not compromise the binding of the cephalosporin nucleus to the lactamase
- MIC ([2]; JKM4754, read-out: Minimum Inhibitory Concentration): 3.12 µM (≈ 1.76 µg/mL)
- MIC [3, 35]: 12.5 µM (≈ 7.07 µg/mL)
- MIC ([4]; JKR2285, read-out: Minimum Inhibitory Concentration): 3.12 µM (≈ 1.76 µg/mL)
- MIC ([5]; Haemophilus influenzae): 25 µM (≈ 14.1 µg/mL)
- MIC [6]: 200 µM (≈ 113 µg/mL)
- MIC [7]: 50 µM (≈ 28.3 µg/mL)
- MIC [8, 35]: 12.5 µM (≈ 7.07 µg/mL)
- MIC [9]: 6.25 µM (≈ 3.53 µg/mL)
- MIC [10]: ≤ 0.78 µM
- MIC [11]: ≤ 0.78 µM
- MIC ([12]; Salmonella enterica): 25 µM (≈ 14.1 µg/mL)
- MIC [13]: 50 µM (≈ 28.3 µg/mL)
- MIC ([14]; Haemophilus influenzae): 3.12 µM (≈ 1.76 µg/mL)
- MIC [15]: 1.56 µM (≈ 0.882 µg/mL)
- MIC [16]: ≤ 0.78 µM
- MIC [17]: > 200 µM
- MIC [18]: > 200 µM
- MIC ([19]; Enterococcus faecalis, read-out: Minimum Inhibitory Concentration): 12.5 µM (≈ 7.07 µg/mL)
- MIC [20]: 1.56 µM (≈ 0.882 µg/mL)
- MIC [21, 35]: 12.5 µM (≈ 7.07 µg/mL)
- MIC [22]: ≤ 0.78 µM
- MIC ([23]; Salmonella enterica): 50 µM (≈ 28.3 µg/mL)
- MIC ([24]; read-out: Minimum Inhibitory Concentration): 12.5 µM (≈ 7.07 µg/mL)
- MIC [25]: 1.56 µM (≈ 0.882 µg/mL)
- MIC ([26]; Haemophilus influenzae): ≤ 0.78 µM
- MIC [27]: > 200 µM
- detectable activity among the cephalosporins ([28]; E. cloacae, all of the susceptible E. coli strains, Corynebacterium strains, S. faecalis): the only cephalosporin with detectable activity
- sensitivity observed ([28]; E. cloacae, all of the susceptible E. coli strains, H. influenzae 487, all of the S. aureus strains): sensitivity was observed
- insensitivity / resistance [28]: resistant
- sensitivity [28, 36]: sensitive
- antimicrobial potency compared with the other cephalosporins ([28]; Table I, all strains): by-and-large a more potent antimicrobial agent than the other three cephalosporins (b), (c) and (d)
- antibiotic potency of (e) versus amino acid ester (c) ([28]; strains sensitive to both (c) and (e)): invariably more potent an antibiotic than is the amino acid ester (c)
- MIC [29]: 6.25 µM (≈ 3.53 µg/mL)
- MIC [30]: ≤ 0.78 µM
- MIC [31]: ≤ 0.78 µM
- MIC [32]: ≤ 0.78 µM
- MIC [33, 35]: 50 µM (≈ 28.3 µg/mL)

Compound: Betachloro-L-Ala-beta-chloro-L-Ala [(f), reference compound]
- antibacterial potency of dipeptide versus beta-Cl-LAla [34]: consistently and dramatically more potent an antibacterial agent than is beta-Cl-LAla alone
- Minimum Inhibitory Concentration [2]: 0.78 µM
- Minimum Inhibitory Concentration ([3]; Escherichia coli Ceph^R, resistant to cephalothin): 3.12 µM
- Minimum Inhibitory Concentration [4]: 0.78 µM
- Minimum Inhibitory Concentration [5]: > 200 µM
- Minimum Inhibitory Concentration [6]: 25 µM
- Minimum Inhibitory Concentration [7]: 200 µM
- Minimum Inhibitory Concentration ([8]; Escherichia coli CR): 12.5 µM
- Minimum Inhibitory Concentration [10]: 1.56 µM
- Minimum Inhibitory Concentration [11]: ≤ 0.78 µM
- Minimum Inhibitory Concentration [12]: 200 µM
- Minimum Inhibitory Concentration [13]: 200 µM
- Minimum Inhibitory Concentration [14]: ≤ 0.78 µM
- Minimum Inhibitory Concentration [15]: 12.5 µM
- Minimum Inhibitory Concentration [16]: 1.56 µM
- Minimum Inhibitory Concentration [17]: > 200 µM
- Minimum Inhibitory Concentration [18]: > 200 µM
- Minimum Inhibitory Concentration ([19]; Streptococcus faecalis, Gram positive): 6.25 µM
- Minimum Inhibitory Concentration [20]: 12.5 µM
- Minimum Inhibitory Concentration ([21]; Escherichia coli JSR-O, parental strain): 12.5 µM
- Minimum Inhibitory Concentration [22]: 1.56 µM
- Minimum Inhibitory Concentration [23]: 200 µM
- Minimum Inhibitory Concentration ([24]; Gram-negative): 12.5 µM
- Minimum Inhibitory Concentration [25]: 12.5 µM
- Minimum Inhibitory Concentration [26]: 12.5 µM
- Minimum Inhibitory Concentration [27]: > 200 µM
- insensitivity / resistance [28]: inherently insensitive
- sensitivity [28, 36]: sensitive
- sensitivity ([28]; S. epidermidis 1239 P^R M^R and M-1554 P^S M^S): exquisitely sensitive
- Minimum Inhibitory Concentration [30]: ≤ 0.78 µM
- Minimum Inhibitory Concentration [31]: ≤ 0.78 µM
- Minimum Inhibitory Concentration [32]: ≤ 0.78 µM
- Minimum Inhibitory Concentration ([33]; Escherichia coli JSR-O Cl-Pep^R, selected for resistance to the peptide (f)): > 200 µM
